The data set in a line: Plasma protein binding in healthy geriatric volunteer by equilibrium dialysis method. Type of data set: ADME, cell-free. To be noted: human, read-out: PPB.

Here are results for 1 compound from ChEMBL document CHEMBL3784969, “Pharmacokinetics of flutamide in patients with renal insufficiency” (Br J Clin Pharmacol, 1999).

Regarding `CC(C)(O)C(=O)Nc1ccc([N+](=O)[O-])c(C(F)(F)F)c1` [HYDROXYFLUTAMIDE], the fraction unbound was less than 0.06.
